Patent publication US9810690B2, “Method for screening inhibitors of Ras” (Araxes Pharma LLC, priority 2015, dated 2017)
Values belong to the compound of their own block, whether it stands above or below them.

Key:
RALA G23C = molecular target: T1, RALA G23C (Homo sapiens, UniProt P11233, G23C); test: Rate constant of covalent reaction of competition probes with RALA mutant (mass spectrometry); assay type: binding
T1 construct: (residues 11-183, either WT or G23C); hexahistidine (TEV-cleavable); made in house; host or cells: Escherichia coli BL21 (DE)
T1 sequence (P11233 11-183 G23C): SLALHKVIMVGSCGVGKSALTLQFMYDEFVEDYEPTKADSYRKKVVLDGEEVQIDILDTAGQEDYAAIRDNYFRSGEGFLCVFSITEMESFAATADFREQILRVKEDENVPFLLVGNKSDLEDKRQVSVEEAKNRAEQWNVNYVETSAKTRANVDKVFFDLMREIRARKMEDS
Protocol: Hexahistidine-tagged recombinant human RalA (“hexahistidine” disclosed as SEQ ID NO: 49) (residues 11-183, either WT or G23C) was transformed into Escherichia coli (BL21 (DE)). After the bacterial grew to an OD(600) of 0.4-0.6 in Terrific Broth containing 30 mg/L kanamycin at 37° C., induction was carried out at 18° C. using 0.5 mM IPTG and growth was continued at 18° C. for about 18 h. The bacteria were harvested by centrifugation and the obtained pellet was either stored at −80° C. or used freshly for the subsequent steps.
(§1) RALA mutant proteins were produced with one mutation to cysteine at the 23 position (G23C) relative to SEQ ID NO: 8 when optimally aligned. KRAS mutant proteins were produced with one mutation to cysteine at the 12 position (G12C) relative to SEQ ID NO: 1 when optimally aligned. The RALA and KRAS mutants were tested for reactivity (e.g., covalent modification of the mutant) with a panel of competition probes that bind the Switch II binding pocket and covalently modify the substituted amino acid with appropriately placed electrophiles based on modeling/docking studies. One such inhibitor covalently bound to RAS (via G12) is depicted in FIG. 2. Screening was carried out by mass spectrometry on an Agilent RapidFire or ThermoScientific Q Exactive system.

K-Ras D92C = molecular target: T2, K-Ras D92C (Homo sapiens, UniProt P01116, D92C); test: QQQ mass spectrometry competition assay for K-Ras D92C binding using competition probe CP-008; settings: CP-008 (100 nM); test compound over a range of concentrations; incubated for 6 h; FIG. 6
T2 construct: made in house
Protocol: The GDP-loaded K-Ras D92C protein (which also contains a histidine tag) was diluted in a HEPES containing assay buffer shortly before use in the QQQ-assay.
To start the assay an internal nonreactive control compound and competition probe compound (CP-008) were added to the protein solution to form a master mix. The master mix was quickly dispersed in a 96-well plate followed by addition a DMSO stock of the compound of interest. […]
To quench the reaction, the reaction mix was transferred to 2% of formic acid in water (0.2% final in the quenched reaction) in a second plate. After sealing the second plate and quick centrifugation the samples were frozen at −80° C.
The frozen samples were sent on dry ice to Pure Honey Technologies for QQQ-quantitation to determine probe and internal control compound amount in each well. For analysis of the obtained data, the ratio of probe to internal control compound was calculated for each well. The assay window was determined by a negative control (DMSO only, no inhibition) and a positive control (100 μM final of CP-008 at a time point where the probe is fully reacted with protein; assigned 100% inhibition) and allowed the calculation of inhibition of probe depletion by the compound of interest.

KRAS G12C = molecular target: T3, KRAS G12C (Homo sapiens, UniProt P01116, G12C); test: Rate constant of covalent reaction of competition probes with KRAS mutant (mass spectrometry); assay type: binding
T3 construct: made in house
Protocol: as §1

KRAS D92C/WT = molecular target: T4, KRAS D92C/WT (Homo sapiens, UniProt P01116, D92C); test: Covalent modification of KRAS mutant by competition probes (TOF mass spectrometry, Agilent RapidFire); assay type: binding
T4 construct: made in house
Protocol: (§2) KRAS mutant proteins were produced with one substituted amino acid selected from E62C, D92C, and H95C and with either glycine at the 12 position (WT) or an additional mutation to aspartic acid at the 12 position (G12D) relative to SEQ ID NO: 1 when optimally aligned. These mutations are depicted on an X-ray crystal structure in FIG. 2. These mutants were tested for reactivity (e.g., covalent modification of the KRAS mutant) with a panel of competition probes that bind the Switch II binding pocket and covalently modify the substituted amino acid with appropriately placed electrophiles based on modeling/docking studies. Screening was carried out by time-of-flight (TOF) mass spectrometry on an Agilent RapidFire system. […] Competition probe reactivity with the G12D mutant or other 12 position mutants may be optimized by iterative structural modification and testing.

KRAS E62C/G12D = molecular target: T5, KRAS E62C/G12D (Homo sapiens, UniProt P01116, E62C/G12D); test: as above; assay type: binding
T5 construct: made in house
Protocol: as §2

KRAS D92C/G12D = molecular target: T6, KRAS D92C/G12D (Homo sapiens, UniProt P01116, D92C/G12D); test: as above; assay type: binding; settings: probe 30 μM
T6 construct: made in house
Protocol: as §2

KRAS H95C/G12D = molecular target: T7, KRAS H95C/G12D (Homo sapiens, UniProt P01116, G12D/H95C); test: as above; assay type: binding
T7 construct: made in house
Protocol: as §2

KRAS E62C/WT = molecular target: T8, KRAS E62C/WT (Homo sapiens, UniProt P01116, E62C); test: as above; assay type: binding
T8 construct: made in house
Protocol: as §2

KRAS H95C/WT = molecular target: T9, KRAS H95C/WT (Homo sapiens, UniProt P01116, H95C); test: as above; assay type: binding; settings: probe 30 μM
T9 construct: made in house
Protocol: as §2

Rate Constant for Reaction with Indicated Protein, RALA G23C (RALA G23C): 6.3 M⁻¹ s⁻¹
Compound: C=CC(=O)N1CCN(c2ncnc3cc(Cl)c(-c4ccc(Cl)s4)cc23)CC1 [CP-019]

inhibition of competition probe (CP-008) depletion by D92C K-Ras (K-Ras D92C): less CP-008 is bound to K-Ras
Compound: CC(=O)N1CCN(c2nc(OCCCN(C)C)nc3c(F)c(-c4cc(O)cc5ccccc45)c(Cl)cc23)CC1 [CP-023, 1-(4-(6-chloro-2-(3-(dimethylamino)propoxy)-8-fluoro-7-(3-hydroxynaphthalen-1-yl)quinazolin-4-yl)piperazin-1-yl)ethanone]

inhibition of competition probe (CP-008) depletion by D92C K-Ras (K-Ras D92C): less CP-008 is bound to K-Ras
Compound: CN(C)CCCOc1nc(N2CCN(C=O)CC2)c2cc(Cl)c(-c3cc(O)cc4ccccc34)c(F)c2n1 [CP-024, 4-(6-chloro-2-(3-(dimethylamino)propoxy)-8-fluoro-7-(3-hydroxynaphthalen-1-yl)quinazolin-4-yl)piperazine-1-carbaldehyde]

Rate Constant for Reaction with Indicated Protein, KRAS G12C (KRAS G12C): 1.1 M⁻¹ s⁻¹
Rate Constant for Reaction with Indicated Protein, RALA G23C (RALA G23C): 5.0 M⁻¹ s⁻¹
Compound: C=CC(=O)N1CCN(c2ncnc3cc(Cl)c(-c4ccccc4Cl)cc23)CC1 [CP-011]

Rate Constant for Reaction with Indicated Protein, RALA G23C (RALA G23C): 19 M⁻¹ s⁻¹
Compound: C=CC(=O)N1CCN(c2ncnc3cc(Cl)c(-c4ccc(C)s4)cc23)CC1 [CP-020]

Rate Constant for Reaction with Indicated Protein, KRAS G12C (KRAS G12C): 2.3 M⁻¹ s⁻¹
Rate Constant for Reaction with Indicated Protein, RALA G23C (RALA G23C): 2.9 M⁻¹ s⁻¹
Compound: C=CC(=O)N1CCN(C(=O)c2cc(-c3cc(Cl)ccc3Cl)c(Cl)cc2O)CC1 [CP-010]

% Covalent Modification with Indicated Protein at 6 hr, D92C/WT (KRAS D92C/WT; probe 30 μM): 28%
% Covalent Modification with Indicated Protein at 6 hr, E62C/G12D (KRAS E62C/G12D; probe 30 μM): 6%
% Covalent Modification with Indicated Protein at 6 hr, D92C/G12D (KRAS D92C/G12D): 11%
% Covalent Modification with Indicated Protein at 6 hr, H95C/G12D (KRAS H95C/G12D; probe 30 μM): 12%
% Covalent Modification with Indicated Protein at 6 hr, E62C/WT (KRAS E62C/WT; probe 30 μM): 82%
% Covalent Modification with Indicated Protein at 6 hr, H95C/WT (KRAS H95C/WT): 21%
Compound: C=CS(=O)(=O)N1CCC(Nc2nc(N3CCN(C(C)=O)CC3)c3cc(Cl)c(-c4c(O)cccc4F)c(F)c3n2)CC1 [CP-005]

% Covalent Modification with Indicated Protein at 6 hr, D92C/WT (KRAS D92C/WT; probe 30 μM): 89%
% Covalent Modification with Indicated Protein at 6 hr, E62C/G12D (KRAS E62C/G12D; probe 30 μM): 11%
% Covalent Modification with Indicated Protein at 6 hr, D92C/G12D (KRAS D92C/G12D): 8%
% Covalent Modification with Indicated Protein at 6 hr, H95C/G12D (KRAS H95C/G12D; probe 30 μM): 12%
% Covalent Modification with Indicated Protein at 6 hr, E62C/WT (KRAS E62C/WT; probe 30 μM): 86%
Compound: C=CS(=O)(=O)NC1CCN(c2nc(N3CCN(C(C)=O)CC3)c3cc(Cl)c(-c4c(O)cccc4F)c(F)c3n2)C1 (centres unmarked) [CP-003]

Rate Constant for Reaction with Indicated Protein, RALA G23C (RALA G23C): 6.0 M⁻¹ s⁻¹
Compound: C=CC(=O)N1CCN(c2ncnc3cc(Cl)c(-c4ccc(O)cc4)cc23)CC1 [CP-017]

Compound: C=CC(=O)N1CCN(c2ncnc3c(F)c(-c4c(O)cccc4F)c(Cl)cc23)CC1 [CP-012]
Rate Constant for Reaction with Indicated Protein, KRAS G12C (KRAS G12C): 310 M⁻¹ s⁻¹
Rate Constant for Reaction with Indicated Protein, RALA G23C (RALA G23C): <1 M⁻¹ s⁻¹

% Covalent Modification with Indicated Protein at 6 hr, D92C/WT (KRAS D92C/WT; probe 100 μM): 2%
% Covalent Modification with Indicated Protein at 6 hr, E62C/G12D (KRAS E62C/G12D; probe 100 μM): 1%
% Covalent Modification with Indicated Protein at 6 hr, H95C/G12D (KRAS H95C/G12D; probe 100 μM): 5%
% Covalent Modification with Indicated Protein at 6 hr, E62C/WT (KRAS E62C/WT; probe 100 μM): 6%
Compound: C=CC(=O)NC1CCCN(c2nc(N3CCN(C(C)=O)CC3)c3cc(Cl)c(-c4c(O)cccc4F)c(F)c3n2)C1 (centres unmarked) [CP-002]
